Legend:
IMP-1 = biological target: T1, IMP-1 (Serratia marcescens, UniProt P52699); test: Library screening, nitrocefin hydrolysis by IMP-1; type: biochemical; conditions: 100 μM compound, 10 nM IMP-1, 100 μM nitrocefin, 1 h
T1 construct: made in house
Source text: Screening compounds were provided from the curated collection of an in-house small-molecule chemical library (the chemical library of the Institute of Transformative Bio-Molecules [ITbM]). The library is composed of structurally diverse molecules, including synthetic molecules with unknown activity, known enzyme inhibitors, approved drugs, and natural products. Some of these molecules are commercially available from several worldwide chemical suppliers, whereas some are structurally novel molecules synthesized in-house by ITbM. All compounds were dissolved in dimethyl sulfoxide (DMSO) at a concentration of 10 mM and stored at −20°C until further use. We screened 22,671 compounds in 96-well flat plates using nitrocefin as a reporter substrate ([37]). Each well included 20 mM HEPES-NaOH buffer (pH 7.5) containing 10 nM IMP-1, 100 μM nitrocefin, and 100 μM concentrations of the tested compounds. The absorbance (Abs) at 482 nm was measured after incubation for 1 h at room temperature. The inhibitory effect of compounds against IMP-1 was evaluated using the following equation: Residual ratio=Abs482 nm compound/Abs482 nm no compound

E. coli DH5α/pBC-IMP-1 = test: Susceptibility and checkerboard testing, IMP-1-producing E. coli; type: cell-based, Escherichia coli
Protocol: (§1) MICs were determined via the microdilution method according to the CLSI guidelines ([38]). In brief, 5 × 10^4 bacterial cells were inoculated in 100 μl of cation-adjusted Mueller-Hinton broth (Becton, Dickinson and Company, Franklin Lakes, NJ) containing the β-lactams and appropriately diluted inhibitors. The final concentration of DMSO was maintained at 2% in the assays. The tested plates were then incubated at 35°C for 16 to 20 h. The MIC value was determined as the lowest concentration of tested β-lactams where no bacterial growth was visibly observed. The optical density at 600 nm (OD600) value was measured using a plate reader for drawing the heat maps. The FIC index value was calculated using the following equation: FIC index=MIC of β-lactam with inhibitor/MIC of β-lactam alone+MIC of inhibitor with β-lactam/MIC of inhibitor alone
(§2) Unless noted otherwise, the FIC index was defined as the lowest value among all obtained values. The synergistic effect was defined as the effect observed when the FIC index value was ≤0.5.

E. coli DH5α/pBC-NDM-1 = test: Susceptibility and checkerboard testing, NDM-1-producing E. coli; type: cell-based, Escherichia coli; conditions: Escherichia coli, read-out: MIC of MPM without inhibitor
Protocol: as §1, §2

E. coli DH5α/pBC-TMB-2 = test: Susceptibility testing, TMB-2-producing E. coli; type: cell-based; conditions: Escherichia coli, read-out: MIC of MPM without inhibitor
Protocol: as §1

[1] = system: E. coli BL21(DE3)/pET-SIM-1; test: Susceptibility testing, SIM-1-producing E. coli; type: cell-based; conditions: Escherichia coli, read-out: MIC of MPM without inhibitor
Protocol: as §1

[2] = system: P. aeruginosa PAO1/pME-IMP-1; test: Susceptibility testing, IMP-1-producing P. aeruginosa PAO1; type: cell-based; conditions: Pseudomonas aeruginosa, PAO1, read-out: MIC of MPM without inhibitor
Protocol: as §1

[3] = system: P. aeruginosa PAO1/pME-NDM-1; test: Susceptibility testing, NDM-1-producing P. aeruginosa PAO1; type: cell-based; conditions: Pseudomonas aeruginosa, PAO1, read-out: MIC of MPM without inhibitor
Protocol: as §1

[4] = system: P. aeruginosa PAO1/pME-VIM-2; test: Susceptibility testing, VIM-2-producing P. aeruginosa PAO1; type: cell-based; conditions: Pseudomonas aeruginosa, PAO1, read-out: MIC of MPM without inhibitor
Protocol: as §1

[5] = system: P. aeruginosa PAO1/pME6032; test: Susceptibility testing, P. aeruginosa PAO1 with empty vector; type: cell-based; conditions: Pseudomonas aeruginosa, PAO1, read-out: MIC of MPM without inhibitor
Protocol: as §1

[6] = system: IMP-type MBL-producing Enterobacteriaceae; test: Susceptibility testing, 19 IMP-type MBL-producing Enterobacteriaceae isolates; type: cell-based; conditions: read-out: MIC of MPM alone
Protocol: as §1

[7] = system: IMP-1-producing E. coli NUBL-24; test: Susceptibility and checkerboard testing, E. coli NUBL-24; type: cell-based; conditions: Escherichia coli; E. coli NUBL-24 (blaIMP-1), MPM alone
Protocol: as §1, §2
The initial density of E. coli NUBL-24 (blaIMP-1) (MPM MIC, 8 μg/ml) was adjusted to approximately 5 × 10^6 CFU/ml. Either MPM (1 μg/ml) alone or SFC (10 μg/ml) alone or a combination of the two was added to the bacterial solution, and then incubation was performed at 37°C. LB broth containing only bacteria was used as a control. […]

[8] = system: IMP-1-producing E. coli NUBL-24; test: Mouse infection model, E. coli NUBL-24, survival; type: in vivo, mice; conditions: SFC 100 mg/kg or MPM 0.2 mg/kg i.p. at 1 and 3 h after infection; within 48 h
Protocol: All experiments were approved by the Nagoya University Animal Ethics Committee, and all experiments were performed in a manner that minimized animal suffering. Male CD1 mice (4 weeks old; 20 to 25 g body weight) were purchased from Charles River Laboratories Japan (Yokohama, Japan). E. coli NUBL-24 (blaIMP-1) and K. pneumoniae MS5674 (blaNDM-1 and blaVIM-1) strains were inoculated on LB agar plates and grown for 18 h at 37°C. Bacteria were then scraped from the plates, and their concentration was adjusted to 5 × 10^6 to 1 × 10^7 CFU in saline solution containing 5% mucin; this solution was then i.p. injected into the mice. At 1 and 3 h after infection, saline solution, MPM, inhibitors, and a combination of MPM and inhibitor were i.p. injected. Mice were monitored for 7 days to formulate survival curves, after which they were euthanized by CO2 asphyxiation.

T1 sequence (P52699 19-246 limits assumed): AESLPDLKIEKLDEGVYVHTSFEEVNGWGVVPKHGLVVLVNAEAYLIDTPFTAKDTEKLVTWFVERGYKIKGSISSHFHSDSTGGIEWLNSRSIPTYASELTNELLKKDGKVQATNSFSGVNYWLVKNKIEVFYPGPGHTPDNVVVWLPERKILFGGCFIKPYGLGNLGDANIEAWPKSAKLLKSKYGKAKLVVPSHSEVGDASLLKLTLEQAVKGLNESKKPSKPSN

SMILES	Residual ratio (Abs482 compound/no compound) (IMP-1)	MIC of MPM without inhibitor (E. coli DH5α/pBC-IMP-1; E. coli DH5α/pBC-IMP-1) [µg/mL]	MIC (E. coli DH5α/pBC-IMP-1; Escherichia coli, read-out: MIC of MPM without inhibitor) [µg/mL]	MIC (E. coli DH5α/pBC-NDM-1) [µg/mL]	MIC (E. coli DH5α/pBC-TMB-2) [µg/mL]	MIC [1] [µg/mL]	MIC [2] [µg/mL]	MIC [3] [µg/mL]	MIC [4] [µg/mL]	MIC [5] [µg/mL]	MIC [6] [µg/mL]	MIC [7] [µg/mL]	Rescue of infected mice by monotherapy [8]
O=C([O-])C1=CS[C@@H]2/C(=C\c3cn4c(n3)COCC4)C(=O)N12.[Na+] [BLI-489]	< 0.6												
C[C@@H](O)[C@H]1C(=O)N2C(C(=O)O)=C(S[C@@H]3CN[C@H](C(=O)N(C)C)C3)[C@H](C)[C@H]12 [MPM, meropenem, reference compound]		1	1	64	16	16	128	8	32	0.5	≥ 2	8	failed to rescue mice
